Patent US11415579B2, “Assay for measuring a rate of reaction between a target and a ligand candidate” (Imperial College Innovations Ltd., priority 2016, dated 2022)
“And” between values parts separate entries of the source, which are not always exact repeats. Equal values may be shown once.

Key:
[1] = molecular target: T1, human cyclin-dependent kinase 2 (Cdk2) (Homo sapiens, UniProt P24941); experiment: Kinetic thiol consumption assay with wild type Cdk2 (C177); assay type: binding; parameters: key to Rate enhancement, Cdk2 WT: k(Cdk2) divided by k(model thiol); Rate constant with Cdk2 (k(Cdk2)): unit not given here; conditions: for Rate constant with Cdk2 (k(Cdk2)): 500 μM ligand, 5 μM thiol, phosphate buffer pH 8; for Rate enhancement, Cdk2 WT: no additional mutations; for Rate constant with Cdk2 WT: Protein: Cdk2, cysteine position WT, in h^-1; for k(Cdk2)/k(Cdk2_mut) rate enhancement: model thiol Cdk2[C177A, F80C, K278C]; for k(Cdk2)/k(GSH) rate enhancement: model thiol glutathione
T1 construct: poly-histidine; made in house; host or cells: E. coli
Method in brief: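 Rate constants came from first-order exponential decay fits of normalized fluorescence against time, with thiol (5 μM) in degassed pH 8 phosphate buffer containing 2% v/v TCEP beads and reads after 1 h at room temperature.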

Cdk2(H71C) (C177A) = molecular target: T2, Cdk2(H71C) (C177A) (Homo sapiens, UniProt P24941, C177A/H71C); experiment: Kinetic thiol consumption assay with Cdk2 mutant H71C; assay type: binding; parameters: key to Rate enhancement, Cdk2 H71C: rate constant with Cdk2 ÷ rate constant with model thiol (fold); conditions: for Rate enhancement, Cdk2 H71C / Rate constant with Cdk2 H71C: additional mutation C177A; for Rate constant with Cdk2 H71C: Protein: Cdk2, cysteine position H71C, in h^-1
T2 construct: poly-histidine; made in house; host or cells: E. coli
Method in brief: (§1)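 His-tagged single-surface-cysteine Cdk2 mutants (C177A background) from E. coli, 5 μM in degassed phosphate buffer pH 8, pre-treated with immobilized TCEP beads. Fluorescence (ex/em 380/470 nm) read after 1 h at room temperature, normalized to DMSO/thiol-only control; first-order decay fits gave rate constants, divided by model-thiol rate for rate enhancement.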

Cdk2(S181C) (C177A) = molecular target: T3, Cdk2(S181C) (C177A) (Homo sapiens, UniProt P24941, C177A/S181C); experiment: Kinetic thiol consumption assay with Cdk2 mutant S181C; assay type: binding; parameters: key to Rate enhancement, Cdk2 S181C: rate constant with Cdk2 ÷ rate constant with model thiol (fold); conditions: for Rate enhancement, Cdk2 S181C / Rate constant with Cdk2 S181C: additional mutation C177A; for Rate constant with Cdk2 S181C: Protein: Cdk2, cysteine position S181C, in h^-1
T3 construct: poly-histidine; made in house; host or cells: E. coli
Method in brief: as §1

Cdk2(R122C) (C177A) = molecular target: T4, Cdk2(R122C) (C177A) (Homo sapiens, UniProt P24941, C177A/R122C); experiment: Kinetic thiol consumption assay with Cdk2 mutant R122C; assay type: binding; parameters: key to Rate enhancement, Cdk2 R122C: rate constant with Cdk2 ÷ rate constant with model thiol (fold); conditions: for Rate enhancement, Cdk2 R122C / Rate constant with Cdk2 R122C: additional mutation C177A; for Rate constant with Cdk2 R122C: Protein: Cdk2, cysteine position R122C, in h-1
T4 construct: poly-histidine; made in house; host or cells: E. coli
Method in brief: as §1

Cdk2[C177A, F80C, K278C] = molecular target: T5, Cdk2[C177A, F80C, K278C] (Homo sapiens, UniProt P24941, C177A/F80C/K278C); experiment: Kinetic thiol consumption assay with mutant Cdk2 as model thiol; assay type: binding; parameters: unit not given here; conditions: 500 μM ligand, 5 μM thiol, phosphate buffer pH 8
T5 construct: poly-histidine; made in house; host or cells: E. coli
Method in brief: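 Model thiol: His-tagged human Cdk2 C177A/F80C/K278C (two engineered surface cysteines), E. coli-expressed, 5 μM in degassed phosphate buffer pH 8 with immobilized TCEP beads (2% v/v). Fluorescence (ex/em 380/470 nm) followed over time at room temperature, normalized to DMSO/thiol control. First-order decay fit gives rate constants.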

[2] = system: Cdk2 constructs (except Cdk(WT)); experiment: Average of several thiols (Cdk2 constructs except WT) as model thiol; assay type: binding, human; conditions: average over all Cdk2 constructs except Cdk2(WT)
Description: In Example 1 rate enhancements were calculated relative to the control thiol, glutathione.
As an example, the rate constant for ligand candidate EL1157 in reaction with all the Cdk2 constructs (except Cdk(WT)) were averaged and then compared to the rate constant with Cdk2(WT).

Cdk2(T182C) (C177A) = molecular target: T6, Cdk2(T182C) (C177A) (Homo sapiens, UniProt P24941, C177A/T182C); experiment: Kinetic thiol consumption assay with Cdk2 mutant T182C; assay type: binding; parameters: key to Rate enhancement, Cdk2 T182C: rate constant with Cdk2 ÷ rate constant with model thiol (fold); conditions: for Rate enhancement, Cdk2 T182C / Rate constant with Cdk2 T182C: additional mutation C177A; for Rate constant with Cdk2 T182C: Protein: Cdk2, cysteine position T182C, in h^-1
T6 construct: poly-histidine; made in house; host or cells: E. coli
Method in brief: as §1

Cdk2(N272C) (C177A) = molecular target: T7, Cdk2(N272C) (C177A) (Homo sapiens, UniProt P24941, C177A/N272C); experiment: Kinetic thiol consumption assay with Cdk2 mutant N272C; assay type: binding; parameters: key to Rate enhancement, Cdk2 N272: rate constant with Cdk2 ÷ rate constant with model thiol (fold); conditions: for Rate enhancement, Cdk2 N272: Cdk2 N272, additional mutation C177A; for Rate constant with Cdk2 N272C: Protein: Cdk2, cysteine position N272C, additional mutation C177A, in h^-1
T7 construct: poly-histidine; made in house; host or cells: E. coli
Method in brief: as §1

[3] = Kinetic thiol consumption assay with model thiol glutathione; assay type: physicochemical; parameters: Rate constant with glutathione (k(GSH)): unit not given here; conditions: for Rate constant with glutathione (k(GSH)): 500 μM ligand, 5 μM thiol, phosphate buffer pH 8; for Rate constant with Glutathione: Protein: Glutathione, cysteine position NA, in h-1
Method in brief: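 Rate constants for acrylamide reaction with 5 μM glutathione come from first-order exponential fits of normalized fluorescence decay (ex 380, em 470 nm). Reactions run in degassed phosphate buffer at pH 8 containing TCEP beads, room temperature.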

Cdk2(S276C) (C177A) = molecular target: T8, Cdk2(S276C) (C177A) (Homo sapiens, UniProt P24941, C177A/S276C); experiment: Kinetic thiol consumption assay with Cdk2 mutant S276C; assay type: binding; parameters: key to Rate enhancement, Cdk2 S276C: rate constant with Cdk2 ÷ rate constant with model thiol (fold); conditions: for Rate enhancement, Cdk2 S276C / Rate constant with Cdk2 S276C: additional mutation C177A; for Rate constant with Cdk2 S276C: Protein: Cdk2, cysteine position S276C, in h^-1
T8 construct: poly-histidine; made in house; host or cells: E. coli
Method in brief: as §1

Cdk2(C177A, F80C) = molecular target: T9, Cdk2(C177A, F80C) (Homo sapiens, UniProt P24941, C177A/F80C); experiment: Kinetic thiol consumption assay with Cdk2 mutant F80C, incl. kobs versus concentration (Kd, k2); assay type: binding; parameters: key to Rate enhancement, Cdk2 F80C: Cdk2 rate constant divided by model-thiol rate constant; conditions: for Rate enhancement, Cdk2 F80C / Rate constant with Cdk2 F80C: additional mutation C177A; for Rate constant with Cdk2 F80C: Protein: Cdk2, cysteine position F80C, in h^-1
T9 construct: poly-histidine; made in house; host or cells: E. coli
Method in brief: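 His-tagged Cdk2(C177A/F80C) from E. coli or model thiol, 5 μM in degassed phosphate buffer pH 8 with TCEP beads, reacted with acrylamide ligands; fluorescence (ex/em 380/470 nm) normalized to DMSO control and fitted to first-order decay for kobs. Kd and k2 obtained from hyperbolic fit of kobs versus ligand concentration.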

Cdk2(F80C, C177A) [4] = molecular target: T10, Cdk2(F80C, C177A) (Homo sapiens, UniProt P24941, C177A/F80C); experiment: Intact protein mass spectrometry of labelling; assay type: binding; conditions: after 2 hours of incubation
T10 construct: poly-histidine; made in house; host or cells: E. coli
Description: Mass spectrometry and X-ray crystallography were used to validate the binding of a hit ligand identified by the present method.
From the screen of Cdk2(F80C, C177A), we identified EL1071 as a hit molecule (rate enhancement relative to GSH=60.5).

Cdk2(F80C, C177A) [5] = molecular target: T10, Cdk2(F80C, C177A); experiment: Kinase assay; assay type: biochemical; conditions: Cdk2(F80C, C177A) labelled with ligand
Description: Again, 1-Cdk2 refers to Cdk2(F80C, C177A) labelled with EL1071 (FIG. 10(c)). Finally, the EL1071-Cdk2(F80C, C177A) complex was crystallized and the structure determined by X-ray crystallography (FIG. 11). This confirms that the ligand binds to the cysteine residue at F80C and blocks the protein's active site leading to the observed inhibition.

Rate constant with Cdk2 (k(Cdk2)) [1]	Rate enhancement, Cdk2 WT [1]	Rate constant with Cdk2 WT [1]	k(Cdk2)/k(Cdk2_mut) rate enhancement [1]	k(Cdk2)/k(GSH) rate enhancement [1]	Rate enhancement, Cdk2 H71C (Cdk2(H71C) (C177A))	Rate constant with Cdk2 H71C (Cdk2(H71C) (C177A))	Rate enhancement, Cdk2 S181C (Cdk2(S181C) (C177A))	Rate constant with Cdk2 S181C (Cdk2(S181C) (C177A))	Rate enhancement, Cdk2 R122C (Cdk2(R122C) (C177A))	Rate constant with Cdk2 R122C (Cdk2(R122C) (C177A))	Rate constant with Cdk2[C177A, F80C, K278C] (k(Cdk2_mut)) (Cdk2[C177A, F80C, K278C])	Rate enhancement, Cdk2 T182C (Cdk2(T182C) (C177A))	Rate constant with Cdk2 T182C (Cdk2(T182C) (C177A))	Rate enhancement, Cdk2 N272 (Cdk2(N272C) (C177A))	Rate constant with Cdk2 N272C (Cdk2(N272C) (C177A))	Rate enhancement, Cdk2 S276C (Cdk2(S276C) (C177A))	Rate constant with Cdk2 S276C (Cdk2(S276C) (C177A))	Structure (SMILES)	Rate constant with glutathione (k(GSH)) [3]	Rate constant with Glutathione [3]	other results
0.2006	2.982	0.2006	0.6586	1.592	0.3892	0.02618	0.2053	0.01381	0.07164	0.004819	0.3046	2.337	0.1572	0.04255	0.002862	1.046	0.07038	C=CC(=O)N1CCN(C(=O)OC(C)(C)C)c2ccccc21 [EL-1157]	0.126	0.06726	Rate constant k(Cdk2(WT)) [1]: 0.2006 h⁻¹; k(Cdk2(WT))/k(average) ([1]; average of multiple Cdk2 mutants as control thiol): 4.46; Rate constant k(Cdk2(H71C)) (Cdk2(H71C) (C177A)): 0.0261 h⁻¹; Rate constant k(Cdk2(S181C)) (Cdk2(S181C) (C177A)): 0.0138 h⁻¹; Rate constant k(Cdk2(R122C)) (Cdk2(R122C) (C177A)): 0.0048 h⁻¹; Rate constant k(average) [2]: 0.0449 h⁻¹; Rate constant k(Cdk2(T182C)) (Cdk2(T182C) (C177A)): 0.1572 h⁻¹; Rate constant k(Cdk2(N272C)) (Cdk2(N272C) (C177A)): 0.0029 h⁻¹; Rate constant k(Cdk2(S276C)) (Cdk2(S276C) (C177A)): 0.0704 h⁻¹; Rate constant k(Cdk2(F80C)) (Cdk2(C177A, F80C)): 0.0393 h⁻¹; Rate enhancement, Cdk2 F80C (Cdk2(C177A, F80C)): 0.5847; Rate constant with Cdk2 F80C (Cdk2(C177A, F80C)): 0.03933
0.433	8.522	0.433	1.341	8.5 and 8.576	7.215	0.3666	0.5036	0.02559	0.2848	0.01447	0.323	7.764	0.3945	0.6083	0.03091	1.09	0.05538	C=CC(=O)N1CCCc2cc(C(=O)OC)ccc21 [EL-1071]	0.051 and 0.05049	0.05081	modification of Cdk2(F80C, C177A) by intact protein mass spectrometry (Cdk2(F80C, C177A) [4]): completely monomodified; hit classification, Example 1 ([1]; hits defined as kCdk2/kGSH>5.8 (3 standard deviations over the mean)): hit fragment; inhibition of kinase activity (Cdk2(F80C, C177A) [5]): completely inhibited; hit classification against Cdk2(F80C, C177A) (Cdk2(C177A, F80C)): hit molecule; rate enhancement relative to GSH (Cdk2(C177A, F80C); Cdk2(F80C, C177A) versus GSH): 60.5; Rate enhancement, Cdk2 F80C (Cdk2(C177A, F80C)): 60.48; Rate constant with Cdk2 F80C (Cdk2(C177A, F80C)): 3.073
